# Laboratory results taken from patent US20240239861A1, “GLUCAGON-RECEPTOR SELECTIVE POLYPEPTIDES AND METHODS OF USE THEREOF” (i2O Therapeutics, Inc., priority 2016, published 2024).
# Where a SMILES comes first, the peptide text is derived from it. [ ]: non-standard residue; d: D form. Aib = CC(C)(N)C(=O)O
# Assays:
# [1] = target: human GCGR (Homo sapiens, UniProt P47871); experiment: Peptide-receptor mediated cAMP accumulation (LANCE Ultra cAMP) in CHO-K1 cells transfected with human GCGR; assay type: cell-based
# [2] = target: human GLP-1R (Homo sapiens, UniProt P43220); experiment: Peptide-receptor mediated cAMP accumulation (LANCE Ultra cAMP) in CHO-K1 cells transfected with human GLP-1R; assay type: cell-based
# [3] = Solubility in water or saline at room temperature, visual inspection; assay type: physicochemical; details: Solubility in water mg/ml
# Text: Samples were visually inspected for clarity of the sample, any appearance of turbidity or haziness.
# [4] = Stability in water or saline at 37° C. and room temperature, 30 days, LC/MS and HPLC purity; assay type: physicochemical
# Text: Samples were withdrawn at a regular interval for 30 days and analyzed by LC/MS and HPLC for determination of purity and mass of the degradation product.
# [5] = in vivo; details: male, rat
# [6] = FIGURE 2B
# [7] = FIGURE 2A
# [8] = hGLP1 pEC50 (cAMP mean (n = 3): 11 point curve starting at 1 nM, Table 3)
# [9] = hGLP1 pEC50 (cAMP) mean (n = 3): 11 point curve starting at 1 nM, Table 2B
# Chain of human GLP-1R (P43220 24-463): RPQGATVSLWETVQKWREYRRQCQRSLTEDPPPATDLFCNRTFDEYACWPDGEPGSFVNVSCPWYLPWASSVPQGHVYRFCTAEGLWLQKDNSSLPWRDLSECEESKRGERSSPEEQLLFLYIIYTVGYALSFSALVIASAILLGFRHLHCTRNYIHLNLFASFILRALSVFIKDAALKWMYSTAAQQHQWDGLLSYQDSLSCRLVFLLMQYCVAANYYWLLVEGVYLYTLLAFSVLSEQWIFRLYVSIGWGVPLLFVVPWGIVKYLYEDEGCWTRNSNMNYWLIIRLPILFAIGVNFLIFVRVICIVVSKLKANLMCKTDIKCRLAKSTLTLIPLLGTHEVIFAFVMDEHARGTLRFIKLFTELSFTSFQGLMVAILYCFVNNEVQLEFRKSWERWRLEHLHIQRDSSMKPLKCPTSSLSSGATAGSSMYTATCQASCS
# Chain of human GCGR (P47871 26-477): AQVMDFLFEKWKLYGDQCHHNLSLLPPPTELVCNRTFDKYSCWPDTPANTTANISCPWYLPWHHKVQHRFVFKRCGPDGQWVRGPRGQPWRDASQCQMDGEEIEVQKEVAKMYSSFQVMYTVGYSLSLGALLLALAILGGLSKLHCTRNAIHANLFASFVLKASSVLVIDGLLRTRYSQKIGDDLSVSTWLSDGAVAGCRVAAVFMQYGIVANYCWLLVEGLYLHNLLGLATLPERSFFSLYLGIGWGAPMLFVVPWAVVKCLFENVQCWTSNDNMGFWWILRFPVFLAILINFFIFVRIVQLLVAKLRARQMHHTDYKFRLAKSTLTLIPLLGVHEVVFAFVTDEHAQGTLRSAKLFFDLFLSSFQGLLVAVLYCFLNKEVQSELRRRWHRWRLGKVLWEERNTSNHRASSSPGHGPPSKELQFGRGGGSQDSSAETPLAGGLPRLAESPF
SMILES,EC50 ([1]; Table 2A),hGCGR pEC50 (cAMP mean (n = 3): 11 point curve starting at 1 nM) ([1]; Table 3),"EC50 [2, 8]","EC50 ([2]; hGLP1 pEC50 (cAMP) mean (n = 9): 11 point curve starting at 500 uM, Table 2A)",solubility [3],Stability 1 mg/ml in water at 37 degC [4],clearance [5],CL [6],"EC50 [2, 9]",CL [7],EC50 ([1]; Table 2B)
CC(C)C[C@H](NC(=O)[C@H](Cc1ccc(O)cc1)NC(=O)[C@H](CCCCN)NC(=O)[C@H](CO)NC(=O)[C@H](Cc1ccc(O)cc1)NC(=O)[C@H](CC(=O)O)NC(=O)[C@H](CO)NC(=O)[C@@H](NC(=O)[C@H](Cc1ccccc1)NC(=O)[C@@H](NC(=O)CNC(=O)[C@H](Cc1c[nH]cn1)NC(=O)[C@H](CO)NC(=O)[C@@H](N)Cc1ccc(O)cc1)[C@@H](C)O)[C@@H](C)O)C(=O)N[C@@H](CC(=O)O)C(=O)N[C@@H](CO)C(=O)N[C@@H](C)C(=O)N[C@@H](CCCNC(=N)N)C(=O)N[C@@H](C)C(=O)N[C@@H](CCC(N)=O)C(=O)N[C@@H](CCC(=O)O)C(=O)N[C@@H](Cc1ccccc1)C(=O)N[C@H](C(=O)N[C@@H](CCCCN)C(=O)N[C@@H](Cc1c[nH]c2ccccc12)C(=O)N[C@@H](CC(C)C)C(=O)N[C@@H](CCC(=O)O)C(=O)N[C@@H](CC(=O)O)C(=O)N[C@@H](CCC(=O)O)C(=O)N1CCC[C@H]1C(=O)N[C@@H](CO)C(=O)N[C@@H](CO)C(=O)NCC(=O)N[C@@H](C)C(=O)N1CCC[C@H]1C(=O)N1CCC[C@H]1C(=O)N1CCC[C@H]1C(=O)N[C@@H](CO)C(N)=O)C(C)C [Compound A5] (H-YSHGTFTSDYSKYLDSARAQEFVKWLEDEPSSGAPPPS-NH2; N-terminus assumed),0.00158 nM,11.8,1580 nM,1580 nM,> 200 mg/mL,>94%,11.7 mL/min/kg,22.6 ± 0.6 mL/min/kg,–,–,–
CC(C)C[C@H](NC(=O)[C@H](Cc1ccc(O)cc1)NC(=O)[C@H](CCCCN)NC(=O)[C@H](CO)NC(=O)[C@H](Cc1ccc(O)cc1)NC(=O)[C@H](CC(=O)O)NC(=O)[C@H](CO)NC(=O)[C@@H](NC(=O)[C@H](Cc1ccccc1)NC(=O)[C@@H](NC(=O)CNC(=O)[C@H](Cc1c[nH]cn1)NC(=O)[C@H](CO)NC(=O)[C@@H](N)Cc1ccc(O)cc1)[C@@H](C)O)[C@@H](C)O)C(=O)N[C@@H](CC(=O)O)C(=O)N[C@@H](C)C(=O)N[C@@H](C)C(=O)N[C@@H](CCCNC(=N)N)C(=O)N[C@@H](C)C(=O)N[C@@H](CCC(N)=O)C(=O)N[C@@H](CCC(=O)O)C(=O)N[C@@H](Cc1ccccc1)C(=O)N[C@H](C(=O)N[C@@H](CCCCN)C(=O)N[C@@H](Cc1c[nH]c2ccccc12)C(=O)N[C@@H](CC(C)C)C(=O)N[C@@H](CCC(=O)O)C(=O)N[C@@H](CC(=O)O)C(=O)N[C@@H](CCC(=O)O)C(=O)N1CCC[C@H]1C(=O)N[C@@H](CO)C(=O)N[C@@H](CO)C(=O)NCC(=O)N[C@@H](C)C(=O)N1CCC[C@H]1C(=O)N1CCC[C@H]1C(=O)N1CCC[C@H]1C(=O)N[C@@H](CO)C(=O)O)C(C)C [Compound A97] (H-YSHGTFTSDYSKYLDAARAQEFVKWLEDEPSSGAPPPS-OH; N-terminus assumed),–,–,> 1 nM,–,> 200 mg/mL,>59%,18.9 mL/min/kg,–,> 1 nM,–,–
CC(C)C[C@H](NC(=O)[C@H](Cc1c[nH]c2ccccc12)NC(=O)[C@H](CCCCN)NC(=O)[C@@H](NC(=O)[C@H](Cc1ccccc1)NC(=O)[C@H](CCC(=O)O)NC(=O)[C@H](CCC(N)=O)NC(=O)[C@H](C)NC(=O)[C@H](CCCNC(=N)N)NC(=O)[C@H](CCCCN)NC(=O)[C@H](CO)NC(=O)[C@H](CCC(=O)O)NC(=O)[C@H](CC(C)C)NC(=O)[C@H](CC(C)C)NC(=O)[C@H](CCCNC(=N)N)NC(=O)[C@@H](NC(=O)[C@H](Cc1ccc(O)cc1)NC(=O)[C@H](CC(=O)O)NC(=O)[C@H](CO)NC(=O)[C@@H](NC(=O)[C@H](Cc1ccccc1)NC(=O)[C@@H](NC(=O)CNC(=O)[C@H](Cc1c[nH]cn1)NC(=O)[C@H](CO)NC(=O)[C@@H](N)Cc1ccc(O)cc1)[C@@H](C)O)[C@@H](C)O)[C@@H](C)O)C(C)C)C(=O)N[C@@H](CCC(=O)O)C(=O)N[C@@H](CC(=O)O)C(=O)N[C@@H](CCC(=O)O)C(=O)N1CCC[C@H]1C(=O)N[C@@H](CO)C(=O)N[C@@H](CO)C(=O)NCC(=O)N[C@@H](C)C(=O)N1CCC[C@H]1C(=O)N1CCC[C@H]1C(=O)N1CCC[C@H]1C(=O)N[C@@H](CO)C(=O)O [Compound A98] (H-YSHGTFTSDYTRLLESKRAQEFVKWLEDEPSSGAPPPS-OH; N-terminus assumed),–,–,> 1 nM,–,> 200 mg/mL,>75%,–,–,> 1 nM,51.5 ± 13.4 mL/min/kg,–
CC(C)C[C@H](NC(=O)[C@H](Cc1ccc(O)cc1)NC(=O)[C@H](CCCCN)NC(=O)[C@H](CO)NC(=O)[C@H](Cc1ccc(O)cc1)NC(=O)[C@H](CC(=O)O)NC(=O)[C@H](CO)NC(=O)[C@@H](NC(=O)[C@H](Cc1ccccc1)NC(=O)[C@@H](NC(=O)CNC(=O)[C@H](Cc1c[nH]cn1)NC(=O)[C@H](CO)NC(=O)[C@@H](N)Cc1ccc(O)cc1)[C@@H](C)O)[C@@H](C)O)C(=O)N[C@@H](CC(=O)O)C(=O)NC(C)(C)C(=O)N[C@@H](CCCCN)C(=O)N[C@@H](CCCNC(=N)N)C(=O)N[C@@H](C)C(=O)N[C@@H](CCC(N)=O)C(=O)N[C@@H](CCC(=O)O)C(=O)N[C@@H](Cc1ccccc1)C(=O)N[C@H](C(=O)NC(C)(C)C(=O)N[C@@H](Cc1c[nH]c2ccccc12)C(=O)N[C@@H](CC(C)C)C(=O)N[C@@H](CCC(=O)O)C(=O)N[C@@H](CC(=O)O)C(=O)N[C@@H](CCC(=O)O)C(=O)N1CCC[C@H]1C(=O)N[C@@H](CO)C(=O)N[C@@H](CO)C(=O)NCC(=O)N[C@@H](C)C(=O)N1CCC[C@H]1C(=O)N1CCC[C@H]1C(=O)N1CCC[C@H]1C(=O)N[C@@H](CO)C(=O)O)C(C)C [Compound A99],–,–,> 1 nM,–,> 200 mg/mL,>64%,23 mL/min/kg,–,> 1 nM,22.3 ± 1.9 mL/min/kg,–
CC(C)C[C@H](NC(=O)[C@H](Cc1ccc(O)cc1)NC(=O)[C@H](CCCCN)NC(=O)[C@H](CO)NC(=O)[C@H](Cc1ccc(O)cc1)NC(=O)[C@H](CC(=O)O)NC(=O)[C@H](CO)NC(=O)[C@@H](NC(=O)[C@H](Cc1ccccc1)NC(=O)[C@@H](NC(=O)CNC(=O)[C@H](Cc1c[nH]cn1)NC(=O)[C@H](CO)NC(=O)[C@@H](N)Cc1ccc(O)cc1)[C@@H](C)O)[C@@H](C)O)C(=O)N[C@@H](CC(=O)O)C(=O)NC(C)(C)C(=O)N[C@@H](CCCCN)C(=O)N[C@@H](CCCNC(=N)N)C(=O)N[C@@H](C)C(=O)N[C@@H](CCC(N)=O)C(=O)N[C@@H](CCC(=O)O)C(=O)N[C@@H](Cc1ccccc1)C(=O)N[C@H](C(=O)NC(C)(C)C(=O)N[C@@H](Cc1c[nH]c2ccccc12)C(=O)N[C@@H](CC(C)C)C(=O)N[C@@H](CCC(=O)O)C(=O)N[C@@H](CC(=O)O)C(=O)N[C@@H](CCC(=O)O)C(=O)O)C(C)C [Compound A100],–,–,> 1 nM,–,> 200 mg/mL,>69%,–,–,> 1 nM,120 ± 39 mL/min/kg,–
CC(C)C[C@H](NC(=O)[C@H](Cc1c[nH]c2ccccc12)NC(=O)[C@H](CCCCN)NC(=O)[C@@H](NC(=O)[C@H](Cc1ccccc1)NC(=O)[C@H](CCC(=O)O)NC(=O)[C@H](CCC(N)=O)NC(=O)[C@H](C)NC(=O)[C@H](CCCNC(=N)N)NC(=O)[C@H](CCCCN)NC(=O)C(C)(C)NC(=O)[C@H](CC(=O)O)NC(=O)[C@H](CC(C)C)NC(=O)[C@H](Cc1ccc(O)cc1)NC(=O)[C@H](CCCCN)NC(=O)[C@H](CO)NC(=O)[C@H](Cc1c[nH]cn1)NC(=O)[C@H](CC(=O)O)NC(=O)[C@H](CO)NC(=O)[C@@H](NC(=O)[C@H](Cc1ccccc1)NC(=O)[C@@H](NC(=O)CNC(=O)[C@H](Cc1c[nH]cn1)NC(=O)CNC(=O)[C@@H](N)Cc1ccc(O)cc1)[C@@H](C)O)[C@@H](C)O)C(C)C)C(=O)N[C@@H](CCC(=O)O)C(=O)N[C@@H](CC(=O)O)C(=O)N[C@@H](CCC(=O)O)C(=O)O [Compound A101] (H-YGHGTFTSDHSKYLD[Aib]KRAQEFVKWLEDE-OH; N-terminus assumed),–,–,> 1 nM,–,> 200 mg/mL,>50%,–,–,> 1 nM,88.3 ± 9.0 mL/min/kg,0.00501 nM
CC(C)C[C@H](NC(=O)[C@H](Cc1c[nH]c2ccccc12)NC(=O)[C@H](CCCCN)NC(=O)[C@@H](NC(=O)[C@H](Cc1ccccc1)NC(=O)[C@H](CCC(=O)O)NC(=O)[C@H](CCC(N)=O)NC(=O)[C@H](C)NC(=O)[C@H](CCCNC(=N)N)NC(=O)[C@H](CCCCN)NC(=O)C(C)(C)NC(=O)[C@H](CC(=O)O)NC(=O)[C@H](CC(C)C)NC(=O)[C@H](Cc1c[nH]c2ccccc12)NC(=O)[C@H](CCCCN)NC(=O)[C@H](CO)NC(=O)[C@H](Cc1ccc(O)cc1)NC(=O)[C@H](CC(=O)O)NC(=O)[C@H](CO)NC(=O)[C@@H](NC(=O)[C@H](Cc1ccccc1)NC(=O)[C@@H](NC(=O)CNC(=O)[C@H](Cc1c[nH]cn1)NC(=O)[C@H](CO)NC(=O)[C@@H](N)Cc1ccc(O)cc1)[C@@H](C)O)[C@@H](C)O)C(C)C)C(=O)N[C@@H](CCC(=O)O)C(=O)N[C@@H](CC(=O)O)C(=O)N[C@@H](CCC(=O)O)C(=O)O [Compound A102] (H-YSHGTFTSDYSKWLD[Aib]KRAQEFVKWLEDE-OH; N-terminus assumed),–,–,> 1 nM,–,> 200 mg/mL,>51%,–,–,> 1 nM,97.2 ± 6.3 mL/min/kg,–
